Results taken from patent US8349619B2, “Method for detecting and analyzing protein interactions in-vivo” (Sygnis Bioscience GmbH & Co. KG, priority 2002, dated 2013).

Key:
[1] = test system: interaction of G-ME2bHLH and V-ND in PC12 20.4 cells; assay: Cre recombinase-based two-hybrid system in PC12 cell line 20.4 with transient addition of TSA, GFP fluorescence; set-up: species or system rat; settings: 3 μM TSA for 12 h; two days after transfection of G-ME2bHLH and V-ND; without TSA no GFP-positive cells
Excerpt: FIG. 8 depicts GFP-fluorescence and phase contrast images of the stable PC12 cell line #20.4 two days after transfection with GV, G-ME2bHLH, V-ND and G-ME2bHLH with V-ND, with addition of TSA. […] After cotransfection of the two-hybrid interaction partners V-ND and G-ME2bHLH, GFP fluorescence is likewise detectable under the TSA culturing conditions (bottom left). Under control conditions, transfection of V-ND or G-ME2bHLH, no GFP fluorescence is detectable (center left).
As described in example 4, the PC12 cell line 20.4 expresses all components of the Cre-based reporter system in a completely functional manner. In order to test whether the cell line 20.4 can be utilized for application in the two-hybrid system (see FIG. 2), the known interaction partners described in example 3 were analyzed. Two days after cotransfection of the interaction partners G-ME2bHLH and V-ND, no GFP-positive cells were detectable (see FIG. 7, bottom left). After single transfections of G-ME2bHLH and V-ND, GFP-positive cells were likewise not detectable (see FIG. 7, central figures, left). […] Only after cotransfection of the interaction partners GBR2cc and V-GBR1cc, a multiplicity of GFP-positive cells were detected, after single transfection and cotransfection of the cc deletion mutants, GBR2ccDel and V-GBR1ccDel, no GFP-positive cells were microscopically detectable (see FIG. 9, bottom bar).

PC12 20.4 cells = assay: Cell survival of PC12 20.4 cells after TSA addition (phase contrast images); type: cell-based, rat; settings: 3 μM TSA for 12 h
Protocol: As described in example 4, the PC12 cell line 20.4 expresses all components of the Cre-based reporter system in a completely functional manner. In order to test whether the cell line 20.4 can be utilized for application in the two-hybrid system (see FIG. 2), the known interaction partners described in example 3 were analyzed. Two days after cotransfection of the interaction partners G-ME2bHLH and V-ND, no GFP-positive cells were detectable (see FIG. 7, bottom left). After single transfections of G-ME2bHLH and V-ND, GFP-positive cells were likewise not detectable (see FIG. 7, central figures, left). […] Therefore, the same two-hybrid analysis was carried out in the following experiments, after transient addition of trichostatin A (3 μM, for 12 h, Sigma) (FIG. 8). […] After single transfections of G-ME2bHLH and V-ND, no GFP-positive cells were detectable (see FIG. 8, central figures, left). […] The TSA concentration with the best ratio of cell survival and nearly background-free detection of the interaction of G-ME2bHLH and V-ND, was […] for 12 h. […] Only after cotransfection of the interaction partners GBR2cc and V-GBR1cc, a multiplicity of GFP-positive cells were detected, after single transfection and cotransfection of the cc deletion mutants, GBR2ccDel and V-GBR1ccDel, no GFP-positive cells were microscopically detectable (see FIG. 9, bottom bar).

## CC(/C=C/C(=O)NO)=C\[C@@H](C)C(=O)c1ccc(N(C)C)cc1 [TSA, trichostatin A]
[1]
  GFP-positive cells detected after transient addition of TSA: a multiplicity of GFP-positive cells were now detected
PC12 20.4 cells
  number of surviving cells: lower number of surviving cells
